Measured values taken from ChEMBL document CHEMBL1201862, “PubChem BioAssay data set” (2004).
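Five concentrations, 48 hours, 96-well plates. The concentration for 50% growth inhibition is given as GI50.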 Calls of active or inactive are those of the source. Cut-off read from the data, not from the text of the source: active = GI50 up to about 1.1 µM and inactive = higher.

Experiments:
Experiment in all cases: inhibition of tumour cell growth, NCI panel, 48 h
DLD-1 = tested on: DLD-1
DMS-114 = tested on: DMS-114
DMS-273 = tested on: DMS-273
HOP-18 = tested on: HOP-18
KM-20L2 = tested on: KM-20L2
M19-MEL = tested on: M19-MEL
SNB-78 = tested on: SNB-78
XF498 = tested on: XF498
RXF 631 = tested on: RXF 631

COC(=O)[C@@H]1c2cc3c(c(O)c2[C@@H](OC2OC(C)C(OC)C(C)(OC)C2OC)C[C@]1(C)O)C(=O)c1c(O)cc2c(c1C3=O)O[C@H]1O[C@]2(C)[C@H](O)[C@@H](N(C)C)[C@@H]1O (stereo partly drawn)
GI50 (DLD-1): 0.00146 µM (active)
GI50 (DMS-114): 0.00107 µM (active)
GI50 (DMS-273): 0.01 µM (active)
GI50 (HOP-18): 0.00323 µM (active)
GI50 (KM-20L2): 0.00745 µM (active)
GI50 (M19-MEL): 0.000973 µM (active)
GI50 (SNB-78): 0.00306 µM (active)
GI50 (XF498): 0.00177 µM (active)

C#CCN(Cc1ccc2nc(-c3ccccc3)c(Cl)nc2c1)c1ccc(Cl)c(Cl)c1
GI50 (DLD-1): > 100 µM (inactive)
GI50 (DMS-114): > 100 µM (inactive)
GI50 (DMS-273): > 100 µM (inactive)
GI50 (HOP-18): > 100 µM (inactive)
GI50 (KM-20L2): > 100 µM (inactive)
GI50 (M19-MEL): > 100 µM (inactive)
GI50 (SNB-78): 38.1 µM (inactive)
GI50 (XF498): > 100 µM (inactive)

COc1cc2cnc3c4cc(OCc5ccccc5)ccc4ccc3c2cc1OC
GI50 (DLD-1): 18.4 µM (inactive)
GI50 (DMS-114): 11.4 µM (inactive)
GI50 (HOP-18): 18.4 µM (inactive)
GI50 (KM-20L2): 80 µM (inactive)
GI50 (M19-MEL): 27.4 µM (inactive)
GI50 (RXF 631): 14.1 µM (inactive)
GI50 (SNB-78): 19.1 µM (inactive)

O=C(NC1C(=O)NNC1c1cccc([N+](=O)[O-])c1)c1ccccc1 (stereo not drawn)
GI50 (DLD-1): > 100 µM (inactive)
GI50 (DMS-114): > 100 µM (inactive)
GI50 (HOP-18): > 100 µM (inactive)
GI50 (KM-20L2): > 100 µM (inactive)
GI50 (M19-MEL): > 100 µM (inactive)
GI50 (RXF 631): > 100 µM (inactive)
GI50 (SNB-78): > 100 µM (inactive)
GI50 (XF498): > 100 µM (inactive)

CC(=O)N1C/C(=C\c2ccccc2)C(=O)/C(=C/c2ccccc2)C1
GI50 (DLD-1): 8.71 µM (inactive)
GI50 (DMS-273): 4.85 µM (inactive)
GI50 (HOP-18): 18.8 µM (inactive)
GI50 (KM-20L2): 15.6 µM (inactive)
GI50 (M19-MEL): 3.34 µM (inactive)
GI50 (SNB-78): 17.2 µM (inactive)
GI50 (XF498): 23.8 µM (inactive)

O=C(CC(=O)c1cccc2ccccc12)C(=O)Nc1ccc(Cl)cc1
GI50 (DLD-1): > 100 µM (inactive)
GI50 (DMS-114): > 100 µM (inactive)
GI50 (DMS-273): > 100 µM (inactive)
GI50 (HOP-18): > 100 µM (inactive)
GI50 (KM-20L2): > 100 µM (inactive)
GI50 (M19-MEL): > 100 µM (inactive)
GI50 (RXF 631): > 100 µM (inactive)
GI50 (SNB-78): > 100 µM (inactive)
GI50 (XF498): > 100 µM (inactive)

NC(=O)c1cn(C2OC(CO)C(O)C2O)c(=O)[nH]c1=O (stereo not drawn)
GI50 (DLD-1): > 100 µM (inactive)
GI50 (DMS-114): > 100 µM (inactive)
GI50 (DMS-273): > 100 µM (inactive)
GI50 (M19-MEL): > 100 µM (inactive)
GI50 (RXF 631): > 100 µM (inactive)
GI50 (SNB-78): > 100 µM (inactive)

CC(N)CC(=O)O (stereo not drawn)
GI50 (DLD-1): > 5000 µM (inactive)
GI50 (DMS-114): > 5000 µM (inactive)
GI50 (DMS-273): > 5000 µM (inactive)
GI50 (HOP-18): > 5000 µM (inactive)
GI50 (KM-20L2): > 5000 µM (inactive)
GI50 (M19-MEL): > 5000 µM (inactive)
GI50 (SNB-78): > 5000 µM (inactive)

c1ccc(NC[Si]23OCCN(CCO2)CCO3)cc1
GI50 (DLD-1): > 100 µM (inactive)
GI50 (DMS-114): > 100 µM (inactive)
GI50 (DMS-273): > 100 µM (inactive)
GI50 (HOP-18): > 100 µM (inactive)
GI50 (M19-MEL): > 100 µM (inactive)
GI50 (RXF 631): > 100 µM (inactive)
GI50 (SNB-78): > 100 µM (inactive)

CC(=O)[O-].[Zn+].c1ccc(/C(=N\Nc2ccccn2)c2ccccn2)cc1
GI50 (DLD-1): 0.0231 µM (active)
GI50 (DMS-114): 0.01 µM (active)
GI50 (DMS-273): 0.309 µM (active)
GI50 (HOP-18): 0.247 µM (active)
GI50 (KM-20L2): 0.01 µM (active)
GI50 (M19-MEL): 0.394 µM (active)
GI50 (SNB-78): 2.38 µM (inactive)

CO[C@H](C(=O)O[C@H]1C(=O)N2CCC3CCC1C32C)c1ccccc1 (stereo partly drawn)
GI50 (DLD-1): > 100 µM (inactive)
GI50 (DMS-114): > 100 µM (inactive)
GI50 (HOP-18): > 100 µM (inactive)
GI50 (KM-20L2): > 100 µM (inactive)
GI50 (M19-MEL): > 100 µM (inactive)
GI50 (SNB-78): > 100 µM (inactive)
GI50 (XF498): > 100 µM (inactive)

Cc1c2cc[n+](C)cc2c(C)c2c1[nH]c1ccc(Cl)cc12
GI50 (DLD-1): 1.05 µM (active)
GI50 (DMS-114): 0.341 µM (active)
GI50 (DMS-273): 1.76 µM (inactive)
GI50 (HOP-18): 3.78 µM (inactive)
GI50 (KM-20L2): 2.58 µM (inactive)
GI50 (M19-MEL): 0.993 µM (active)
GI50 (SNB-78): 0.288 µM (active)
